# Assay results: patent EP0080682A1, “Bisisoquinolinium compound, pharmaceutical compositions and synthesis” (THE WELLCOME FOUNDATION LIMITED, priority 1981, dated 1983)
# Where two headings read alike, the source gives them in different places.
# What was measured:
# [1] = tested on: isometric twitch of the tibialis anterior muscle; assay: Neuromuscular block after intravenous administration: isometric twitch of the tibialis anterior muscle in response to peroneal nerve stimulation, Rhesus monkeys; format: in vivo; settings: Rhesus Monkey
# From the text: (§1) Trans, trans-2,2'-(trimethylenebis(carbonyloxytri- methylene))bis(1,2,3,4-tetrahydro-6,7,8-trimethoxy-2-methyl-1-(3,4,5-trimethoxybenzyl)isoquinolinium) dichloride (prepared as in Example 3) was examined by intravenous administration to cats and Rhesus monkeys, maintained by artificial ventilation and prepared for recording the isometric twitch of the tibialis anterior muscle in response to stimulation of peroneal nerve.
# [2] = tested on: isometric twitch of the tibialis anterior muscle; assay: Neuromuscular block after intravenous administration: isometric twitch of the tibialis anterior muscle in response to peroneal nerve stimulation, cats; format: in vivo; settings: Cat
# From the text: as §1
# [3] = cited from earlier work
# [4] = intravenous, time from injection to 95% recovery
structure (smiles),measurement,setting,value
"COc1cc(CC2c3c(cc(OC)c(OC)c3OC)CC[N+]2(C)CCCOC(=O)CCCC(=O)OCCC[N+]2(C)CCc3cc(OC)c(OC)c(OC)c3C2Cc2cc(OC)c(OC)c(OC)c2)cc(OC)c1OC (stereo not drawn) [Example 1, trans, trans-2,2'-(trimethylenebis(carbonyloxytrimethy-lene))bis(1,2,3,4-tetrahydro-6,7,8-trimethoxy-2-methyl-1-(3,4,5-trimethoxybenzyl)isoquinolinium) dichloride]",ED95,"[1]; Macaca mulatta, intravenous administration, artificial ventilation, 4 animals",0.05 mg/kg
same,Duration,[1]; [4],≃15^+ Minutes
same,Duration,[2]; [4],≃25 Minutes
same,ED95,"[2]; Felis catus, intravenous administration, artificial ventilation, 2 animals",0.03 mg/kg
COc1cc2c3cc1Oc1cc(ccc1O)C[C@@H]1c4c(cc(OC)c(O)c4Oc4ccc(cc4)C[C@@H]3N(C)CC2)CC[N+]1(C)C [d-tubocurarine],dose of agents most widely used clinically,"[3]; clinical use, compared with intravenous paralysing dose of compounds of formula (I)",0.4 to 0.6 mg/kg
CC(=O)O[C@H]1C[C@@H]2CC[C@@H]3[C@H](CC[C@@]4(C)[C@H]3C[C@H]([N+]3(C)CCCCC3)[C@@H]4OC(C)=O)[C@@]2(C)C[C@@H]1[N+]1(C)CCCCC1 [pancuronium],dose of agents most widely used clinically,[3]; in vivo,0.06 to 0.08 mg/kg
